Measured values published in PubChem BioAssay AID1919013 (Molecular Pharmacology Branch, DTP, NCI, 2023).
Values joined by “and” are separate entries in the source; they are usually repeats but may differ in a detail not shown here. Identical values can stand only once.

Tested on: LG0703-F498-PDC complex spheroid growth
Assay: Anticancer human tumor LG0703-F498-PDC patient-derived lung adenocarcinoma cell line growth inhibition [AhR]
Conditions: for viability, T/C: stronger effect = lower value
How it was run: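 Agents were dosed in half-log steps down from roughly clinical Cmax, or from 10 microM where Cmax was unknown, alone and with AhR antagonists. Read-out: percent test/control growth of tumor spheroids containing HUVEC and MSC stromal cells.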

[1] = curve of first compound, second compound 0.1 µM
[2] = curve of first compound, second compound 0.316 µM
[3] = curve of first compound, second compound 1 µM
[4] = curve of first compound, second compound 3.16 µM
[5] = curve of first compound, second compound 10 µM
[6] = second compound 0.1 µM, first compound 0.0316 µM
[7] = second compound 0.1 µM, first compound 0.1 µM
[8] = second compound 0.1 µM, first compound 0.316 µM
[9] = second compound 0.1 µM, first compound 1 µM
[10] = second compound 0.1 µM, first compound 3.16 µM
[11] = second compound 0.1 µM, first compound 10 µM
[12] = second compound 0.316 µM, first compound 0.0316 µM
[13] = second compound 0.316 µM, first compound 0.1 µM
[14] = second compound 0.316 µM, first compound 0.316 µM
[15] = second compound 0.316 µM, first compound 1 µM
[16] = second compound 0.316 µM, first compound 3.16 µM
[17] = second compound 0.316 µM, first compound 10 µM
[18] = second compound 1 µM, first compound 0.0316 µM
[19] = second compound 1 µM, first compound 0.1 µM
[20] = second compound 1 µM, first compound 0.316 µM
[21] = second compound 1 µM, first compound 1 µM
[22] = second compound 1 µM, first compound 3.16 µM
[23] = second compound 1 µM, first compound 10 µM
[24] = second compound 3.16 µM, first compound 0.0316 µM
[25] = second compound 3.16 µM, first compound 0.1 µM
[26] = second compound 3.16 µM, first compound 0.316 µM
[27] = second compound 3.16 µM, first compound 1 µM
[28] = second compound 3.16 µM, first compound 3.16 µM
[29] = second compound 3.16 µM, first compound 10 µM
[30] = second compound 10 µM, first compound 0.0316 µM
[31] = second compound 10 µM, first compound 0.1 µM
[32] = second compound 10 µM, first compound 0.316 µM
[33] = second compound 10 µM, first compound 1 µM
[34] = second compound 10 µM, first compound 3.16 µM
[35] = second compound 10 µM, first compound 10 µM
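Note: luminescence taken as a proxy for viable cell amount.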
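Throughout, for viability, T/C: percent of DMSO vehicle control where 100% means growth equal to vehicle.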

IC50 [1] [µM] | IC50 [2] [µM] | IC50 [3] [µM] | IC50 [4] [µM] | IC50 [5] [µM] | Structure (SMILES) | viability, T/C [6] [%] | viability, T/C [7] [%] | viability, T/C [8] [%] | viability, T/C [9] [%] | viability, T/C [10] [%] | viability, T/C [11] [%] | viability, T/C [12] [%] | viability, T/C [13] [%] | viability, T/C [14] [%] | viability, T/C [15] [%] | viability, T/C [16] [%] | viability, T/C [17] [%] | viability, T/C [18] [%] | viability, T/C [19] [%] | viability, T/C [20] [%] | other results
 |  |  |  |  | CC1(C)CCC(CN2CCN(c3ccc(C(=O)NS(=O)(=O)c4ccc(NCC5CCOCC5)c([N+](=O)[O-])c4)c(Oc4cnc5[nH]ccc5c4)c3)CC2)=C(c2ccc(Cl)cc2)C1 |  |  |  |  |  |  |  |  |  |  |  |  |  |  |  | viability, T/C (compound 0.0316 µM): 100% and 112% and 101%; viability, T/C (compound 0.1 µM): 105% and 99.6% and 110%; viability, T/C (compound 0.316 µM): 94.1% and 105% and 96.2%; viability, T/C (compound 1 µM): 98.5% and 101% and 95.5%; viability, T/C (compound 3.16 µM): 98.2% (2×) and 102%; viability, T/C (compound 10 µM): 46.4% and 19.4% and 17.5%; IC50 (curve of compound): 9.24 µM and 6.4 µM and 6.39 µM
1.14 | 0.895 | 1.08 | 0.94 | 1.39 | Nc1ccccc1NC(=O)c1ccc(CNC(=O)OCc2cccnc2)cc1 + Cc1ccccc1N=Nc1ccc(NC(=O)c2ccnn2C)c(C)c1 | 89.8 | 95.3 | 88.6 | 54 | 13.7 | 1.74 | 103 | 93.3 | 78.7 | 48.4 | 14.3 | 1.58 | 87.8 | 78.3 | 77.3 | viability, T/C [21]: 53%; viability, T/C [22]: 15.2%; viability, T/C [23]: 2.52%; viability, T/C [24]: 73.9%; viability, T/C [25]: 75.5%; viability, T/C [26]: 69.3%; viability, T/C [27]: 48%; viability, T/C [28]: 20%; viability, T/C [29]: 3.32%; viability, T/C [30]: 76.8%; viability, T/C [31]: 88.6%; viability, T/C [32]: 79.4%; viability, T/C [33]: 54.3%; viability, T/C [34]: 32.1%; viability, T/C [35]: 10.9%
3.97 | 5.26 | 2.83 | < 0.0316 | < 0.0316 | COc1cc(Nc2ncc3c(n2)-c2ccc(Cl)cc2C(c2c(F)cccc2OC)=NC3)ccc1C(=O)O + Cc1cncc(-c2nc(NCCc3c[nH]c4ccccc34)c3ncn(C(C)C)c3n2)c1 | 88.6 | 77.1 | 65.4 | 65.8 | 60.2 | 35 | 81.8 | 80.5 | 58.9 | 78.2 | 58.1 | 38.2 | 94.4 | 70.7 | 63 | viability, T/C [21]: 63.7%; viability, T/C [22]: 55.9%; viability, T/C [23]: 35.1%; viability, T/C [24]: 45.7%; viability, T/C [25]: 33.3%; viability, T/C [26]: 38.1%; viability, T/C [27]: 34.6%; viability, T/C [28]: 18.9%; viability, T/C [29]: 10.2%; viability, T/C [30]: 1.81%; viability, T/C [31]: 1.7%; viability, T/C [32]: 2.07%; viability, T/C [33]: 1.87%; viability, T/C [34]: 1.84%; viability, T/C [35]: 3.35%
